Source: patent US20230148599A1, “FUNGICIDAL MIXTURES CONTAINING PYRAZOLE DERIVATIVES” (FMC Corporation, priority 2020, published 2023)

How the values were obtained:
Format in all cases: in vivo
Alternaria solani [1] = assay: Test F1 (comparative): tomato early blight, tomato seedlings; details: 100 = 100% disease control
Description: (§1) General protocol for preparing test suspensions for Tests A1-F1: the test compounds were first dissolved in acetone in an amount equal to 3% of the final volume and then suspended at the desired concentration (in ppm) in acetone and purified water (50/50 mix by volume) containing 250 ppm of the surfactant PEG400 (polyhydric alcohol esters). The resulting test suspensions were then used in Tests A1-F1.
(§2) The test suspension was sprayed to the point of run-off on tomato seedlings. The following day the seedlings were inoculated with a spore suspension of Alternaria solani (the causal agent of tomato early blight) and incubated in a saturated atmosphere at 27° C. for 48 h, and then moved to a growth chamber at 20° C. for 3 days, after which time visual disease ratings were made.
(§3) A rating of 100 indicates 100% disease control and a rating of 0 indicates no disease control (relative to the controls).

[2] = tested on: Blumeria graminis f. sp. tritici; assay: Test C1 (comparative): wheat powdery mildew, wheat seedlings; details: 100 = 100% disease control
Description: as §1
The test suspension was sprayed to the point of run-off on wheat seedlings. The following day the seedlings were inoculated with a spore dust of Blumeria graminis f. sp. tritici, (also known as Erysiphe graminis f. sp. tritici, the causal agent of wheat powdery mildew) and incubated in a growth chamber at 20° C. for 8 days, after which time visual disease ratings were made.
as §3

[3] = tested on: Puccinia recondita f. sp. tritici; assay: Test B1 (comparative): wheat leaf rust, wheat seedlings; details: 100 = 100% disease control
Description: as §1
The test solution was sprayed to the point of run-off on wheat seedlings. The following day the seedlings were inoculated with a spore suspension of Puccinia recondita f. sp. tritici (the causal agent of wheat leaf rust) and incubated in a saturated atmosphere at 20° C. for 24 h, and then moved to a growth chamber at 20° C. for 7 days, after which time disease ratings were made.
as §3

Botrytis cinerea [4] = assay: Test E1 (comparative): tomato Botrytis, tomato seedlings; details: 100 = 100% disease control
Description: as §1
as §2, with “Botrytis cinerea” for “Alternaria solani”, “Botrytis)” for “early blight)”, “20°” for “27°”, “24°” for “20°”
as §3

Septoria tritici [5] = assay: Test A1 (comparative): wheat leaf blotch, wheat seedlings; details: 100 = 100% disease control, 0 = no control
Description: as §1
The test solution was sprayed to the point of run-off on wheat seedlings. The following day the seedlings were inoculated with a spore suspension of Septoria tritici (the causal agent of wheat leaf blotch) and incubated in a saturated atmosphere at 24° C. for 48 h, and then moved to a growth chamber at 20° C. for 17 days, after which time disease ratings were made.
as §3

Botrytis cinerea [6] = assay: Test E: tomato Botrytis, preventive spray on tomato seedlings; details: 100 = 100% disease control, 0 = no control
Outline: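 Preventive test: seedlings sprayed to run-off with compound in acetone/water (50/50) plus 250 ppm PEG400, inoculated one day later with B. cinerea spores. Held 48 h saturated at 20° C, then 3 days at 24° C; disease control scored visually from 0 to 100 versus controls.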

Phakopsora pachyrhizi = assay: Test D: Asian soybean rust, preventive spray on soybean seedlings; details: 100 = 100% disease control, 0 = no control
Outline: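 Compounds in acetone/water (50/50) with 250 ppm PEG400, dosed in ppm, sprayed to run-off on soybean seedlings; inoculated with P. pachyrhizi spores next day. Held 24 h at 22 °C in saturated air, then 8 days at 22 °C; visual rating of disease control, 0–100, relative to untreated controls.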

[7] = tested on: Puccinia recondita f. sp. tritici; assay: Test B: wheat leaf rust, preventive spray on wheat seedlings; details: 100 = 100% disease control, 0 = no control
Outline: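 Preventive test: compound in acetone/water 50/50 with 250 ppm PEG400 was sprayed onto wheat seedlings one day before inoculation with leaf rust spores. After 24 h in saturated air and 7 days in a growth chamber, both at 20 °C, disease control was scored from 0 to 100 against controls.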

Septoria tritici [8] = assay: Test A: wheat leaf blotch, preventive spray on wheat seedlings; details: 100 = 100% disease control, 0 = no control
Outline: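 Preventive test: one day after spraying seedlings to run-off (concentrations in ppm; acetone/water, 250 ppm PEG400), Septoria tritici spores applied. Scored after 48 h humid incubation at 24 °C plus 17 days at 20 °C, as percent disease control versus untreated controls (100 = full control).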

Alternaria solani [9] = assay: Test F: tomato early blight, preventive spray on tomato seedlings; details: 100 = 100% disease control, 0 = no control
Outline: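 Preventive test: one day after the compound spray, seedlings were inoculated with A. solani, incubated saturated at 27 °C for 48 h, then kept at 20 °C for 3 days. Test suspensions contained acetone/water 50/50 with 250 ppm PEG400 surfactant. Visual ratings run from 0 (no control) to 100 (full control).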

[10] = tested on: Blumeria graminis f. sp. tritici; assay: Test C: wheat powdery mildew, preventive spray on wheat seedlings; details: 50 ppm, 100 = 100% disease control, 0 = no control
Outline: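 Preventive test: inoculation with spore dust came one day after spraying seedlings to run-off with ppm suspensions in acetone/water (50/50) plus 250 ppm PEG400 surfactant. Visual ratings after 8 days' incubation at 20° C give percent disease control relative to controls.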

| SMILES | Test C disease control rating [10] | Test E disease control rating (Botrytis cinerea [6]; 50 ppm) | Test D disease control rating (Phakopsora pachyrhizi; 50 ppm) | Test B disease control rating ([7]; 50 ppm) | Test A disease control rating (Septoria tritici [8]; 50 ppm) | Test F disease control rating (Alternaria solani [9]; 50 ppm) | other results |
| --- | --- | --- | --- | --- | --- | --- | --- |
| Cc1nn(C)c(Nc2ccc([N+](=O)[O-])cc2F)c1-c1ccc(F)cc1Cl [Cmpd. from WO 2010/101973, reference compound] | – | – | – | – | – | – | Test F1 disease control rating (Alternaria solani [1]; Rate 10 ppm): 0%; Test F1 disease control rating (Alternaria solani [1]; Rate 50 ppm): 0%; Test C1 disease control rating ([2]; Rate 10 ppm): 0%; Test C1 disease control rating ([2]; Rate 50 ppm): 0%; Test B1 disease control rating ([3]; Rate 10 ppm): 0%; Test B1 disease control rating ([3]; Rate 50 ppm): 0%; Test E1 disease control rating (Botrytis cinerea [4]; Rate 10 ppm): 0%; Test E1 disease control rating (Botrytis cinerea [4]; Rate 50 ppm): 40%; Test A1 disease control rating (Septoria tritici [5]; Rate 10 ppm): 45%; Test A1 disease control rating (Septoria tritici [5]; Rate 50 ppm): 91% |
| Cc1nn(C)c(Nc2c(F)cccc2[N+](=O)[O-])c1-c1ccc(F)cc1Cl [Compound 112, 4-(2-chloro-4-fluorophenyl)-N-(2-fluoro-6-nitrophenyl)-1,3-dimethyl-1H-pyrazol-5-amine] | – | – | – | – | – | – | Test F1 disease control rating (Alternaria solani [1]; Rate 10 ppm): 99%; Test C1 disease control rating ([2]; Rate 10 ppm): 97%; Test C1 disease control rating ([2]; Rate 50 ppm): 98%; Test B1 disease control rating ([3]; Rate 10 ppm): 86%; Test B1 disease control rating ([3]; Rate 50 ppm): 100%; Test E1 disease control rating (Botrytis cinerea [4]; Rate 10 ppm): 99%; Test E1 disease control rating (Botrytis cinerea [4]; Rate 50 ppm): 99%; pest or weed control at 10 ppm (Botrytis cinerea [6]; 120 h, 10 ppm, read-out: Test E disease control rating): 100%; pest or weed control at 50 ppm (Botrytis cinerea [6]; 120 h, 50 ppm, read-out: Test E disease control rating): 100%; pest or weed control at 10 ppm (Phakopsora pachyrhizi; 216 h, 10 ppm, read-out: Test D disease control rating): 52%; pest or weed control at 50 ppm (Phakopsora pachyrhizi; 216 h, 50 ppm, read-out: Test D disease control rating): 99%; pest or weed control at 10 ppm ([7]; 192 h, 10 ppm, read-out: Test B disease control rating): 100%; pest or weed control at 50 ppm ([7]; 192 h, 50 ppm, read-out: Test B disease control rating): 100%; pest or weed control at 10 ppm (Septoria tritici [8]; Zymoseptoria tritici, 456 h, 10 ppm, read-out: Test A disease control rating): 72%; pest or weed control at 50 ppm (Septoria tritici [8]; Zymoseptoria tritici, 456 h, 50 ppm, read-out: Test A disease control rating): 88%; Test A1 disease control rating (Septoria tritici [5]; Rate 10 ppm): 81%; Test A1 disease control rating (Septoria tritici [5]; Rate 50 ppm): 100%; pest or weed control at 10 ppm (Alternaria solani [9]; 120 h, 10 ppm, read-out: Test F disease control rating): 98%; pest or weed control at 50 ppm (Alternaria solani [9]; 120 h, 50 ppm, read-out: Test F disease control rating): 100% |
| Cc1cc(F)c(Nc2c(-c3c(F)cc(F)cc3Cl)c(C)nn2C)c([N+](=O)[O-])c1 [compound 193] | 100% | 99% | 99% | 100% | 100% | 100% | – |
| Cc1cc(F)c(Nc2c(-c3c(F)cc(F)cc3F)c(C)nn2C)c([N+](=O)[O-])c1 [compound 194] | 100% | 99% | 99% | 100% | 100% | 100% | – |
| Cc1ccc(Nc2c(-c3c(F)cccc3Cl)c(C)nn2C)c([N+](=O)[O-])c1 [compound 195] | 97% | 98% | 0% | 98% | 100% | 73% | – |
| Cc1ccc(Nc2c(-c3c(F)cc(F)cc3Br)c(C)nn2C)c([N+](=O)[O-])c1 [compound 196] | 98% | 98% | 0% | 99% | 100% | 91% | – |
| COc1ccc(Nc2c(-c3c(F)cccc3Cl)c(C)nn2C)c([N+](=O)[O-])c1 [compound 197] | 93% | 98% | 0% | 99% | 100% | 98% | – |
| Cc1cc(F)c(Nc2c(-c3ccc(C#N)cc3F)c(C)nn2C)c([N+](=O)[O-])c1 [compound 198] | 95% | 99% | 89% | 99% | 99% | 100% | – |
| Cc1nn(C)c(Nc2c(F)cc(F)cc2[N+](=O)[O-])c1-c1c(F)cc(F)cc1Cl [compound 199] | 100% | 99% | 100% | 100% | 99% | 100% | – |
| Cc1cc(F)c(Nc2c(-c3c(F)cc(C#N)cc3F)c(C)nn2C)c([N+](=O)[O-])c1 [compound 200] | 99% | 98% | 100% | 100% | 99% | 100% | – |
| Cc1cc(F)c(Nc2c(-c3c(F)cccc3Cl)c(C)nn2C)c([N+](=O)[O-])c1 [compound 201] | 99% | 99% | 98% | 100% | 100% | 99% | – |
